Measurements taken from PubChem BioAssay (NCI).
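Values below derive from 48-hour exposures of cells grown in 96-well plates, with endpoints linearly interpolated between the two concentrations bracketing the appropriate inhibition level. The concentration for full growth arrest is given as TGI.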

Tests used:
Experiment in all cases: DTP human tumour cell line panel, 48 h
[1] = system: UACC-257 melanoma
[2] = system: A549 NSCLC
[3] = system: HOP-92 NSCLC
[4] = system: SF-295 CNS
[5] = system: UACC-62 melanoma
[6] = system: MCF7 breast
[7] = system: SR leukemia
[8] = system: DLD-1 colon
[9] = system: OVCAR-3 ovarian
[10] = system: NCI-H226 lung
[11] = system: SK-MEL-28 melanoma
[12] = system: CAKI-1 renal
[13] = system: LXFL 529 NSCLC
[14] = system: KM12 colon
[15] = system: M19-MEL melanoma
[16] = system: OVCAR-4 ovarian
[17] = system: U251 CNS
[18] = system: K-562 leukemia
[19] = system: EKVX NSCLC
[20] = system: SN12C renal
[21] = system: RPMI-8226 leukemia
[22] = system: MOLT-4 leukemia
[23] = system: HS 578T breast
[24] = system: OVCAR-8 ovarian
[25] = system: T-47D breast
[26] = system: HT29 colon
[27] = system: RXF 393 renal
[28] = system: A498 renal
[29] = system: HL-60(TB) leukemia
[30] = system: SF-268 CNS
[31] = system: HOP-62 NSCLC
[32] = system: 786-0 renal
[33] = system: TK-10 renal
[34] = system: SW-620 colon
[35] = system: SK-MEL-5 melanoma
[36] = system: CCRF-CEM leukemia
[37] = system: MDA-N
[38] = system: DMS 114 small cell lung
[39] = system: HOP-18 NSCLC
[40] = system: SNB-78 CNS
[41] = system: LOX IMVI melanoma
[42] = system: KM20L2 colon
[43] = system: SNB-75 CNS
[44] = system: HCT-15 colon
[45] = system: NCI-H460 lung
[46] = system: MDA-MB-231 breast
[47] = system: ACHN renal
[48] = system: HCT-116 colon
[49] = system: MALME-3M melanoma
[50] = system: NCI-H23 lung
[51] = system: BT-549 breast
[52] = system: SF-539 CNS
[53] = system: XF 498 CNS
[54] = system: PC-3 prostate
[55] = system: COLO 205 colon
[56] = system: UO-31 renal
[57] = system: HCC-2998 colon
[58] = system: MDA-MB-435
[59] = system: M14 melanoma
[60] = system: OVCAR-5 ovarian
[61] = system: NCI-H522 lung
[62] = system: SNB-19 CNS
[63] = system: SK-MEL-2 melanoma
[64] = system: DU-145 prostate
[65] = system: SK-OV-3 ovarian
[66] = system: IGROV1 ovarian
[67] = system: DMS 273 small cell lung

COC(=O)C1=C(C(=O)OC)C(C(=O)OC)C(C(=O)OC)C(C(=O)OC)(C(=O)OC)C(C(=O)OC)=C1C(=O)OC (configuration not stated)
TGI [1]: 27 µM | TGI [2]: 46.4 µM | TGI [3]: 18.4 µM | TGI [4]: 39.9 µM | TGI [5]: 31 µM | TGI [6]: 33.6 µM | TGI [7]: 3.34 µM | TGI [8]: 6.98 µM | TGI [9]: 28.9 µM | TGI [10]: 25.1 µM | TGI [11]: 29.3 µM | TGI [12]: 36.7 µM | TGI [13]: 21.8 µM | TGI [14]: 31.3 µM | TGI [15]: 25.6 µM | TGI [16]: > 52 µM | TGI [17]: 31 µM | TGI [18]: 22.4 µM | TGI [19]: 35.4 µM | TGI [20]: 27.5 µM | TGI [21]: 10.5 µM | TGI [22]: 6.71 µM | TGI [23]: 75.3 µM | TGI [24]: 25.2 µM | TGI [25]: 50.8 µM | TGI [26]: 35.3 µM | TGI [27]: 16.7 µM | TGI [28]: 29.3 µM | TGI [29]: 4.95 µM | TGI [30]: 42.3 µM | TGI [31]: 58.1 µM | TGI [32]: 26.3 µM | TGI [33]: 29 µM | TGI [34]: 16.8 µM | TGI [35]: 31.6 µM | TGI [36]: 8.72 µM | TGI [37]: 31.2 µM | TGI [38]: 23.2 µM | TGI [39]: 31 µM | TGI [40]: 44 µM | TGI [41]: 28.2 µM | TGI [42]: 35.9 µM | TGI [43]: 34.5 µM | TGI [44]: 21.2 µM | TGI [45]: 37.4 µM | TGI [46]: 40.1 µM | TGI [47]: 28.4 µM | TGI [48]: 19.6 µM | TGI [49]: 15.7 µM | TGI [50]: 35.8 µM | TGI [51]: 32.1 µM | TGI [52]: 36.7 µM | TGI [53]: 25.3 µM | TGI [54]: 30.1 µM | TGI [55]: 16.8 µM | TGI [56]: 30.7 µM | TGI [57]: 31 µM | TGI [58]: 37.5 µM | TGI [59]: 29.8 µM | TGI [60]: 35.3 µM | TGI [61]: 4.07 µM | TGI [62]: 33 µM | TGI [63]: 35.1 µM | TGI [64]: 32.1 µM | TGI [65]: 55.6 µM | TGI [66]: 36.8 µM

C=C1c2ccccc2N(S(=O)(=O)c2ccc(C)cc2)C12CCCCC2
TGI [1]: > 100 µM | TGI [2]: > 100 µM | TGI [3]: 58.5 µM | TGI [67]: > 100 µM | TGI [4]: > 100 µM | TGI [5]: > 100 µM | TGI [7]: > 100 µM | TGI [8]: > 100 µM | TGI [9]: > 100 µM | TGI [10]: > 100 µM | TGI [11]: > 100 µM | TGI [13]: > 100 µM | TGI [14]: > 100 µM | TGI [15]: > 100 µM | TGI [16]: > 100 µM | TGI [17]: > 100 µM | TGI [18]: > 100 µM | TGI [19]: > 100 µM | TGI [20]: > 100 µM | TGI [21]: > 100 µM | TGI [22]: > 100 µM | TGI [24]: > 100 µM | TGI [26]: > 100 µM | TGI [27]: > 100 µM | TGI [29]: > 100 µM | TGI [30]: > 100 µM | TGI [31]: > 100 µM | TGI [32]: > 100 µM | TGI [33]: > 100 µM | TGI [34]: > 100 µM | TGI [35]: > 100 µM | TGI [36]: > 100 µM | TGI [38]: > 100 µM | TGI [39]: > 100 µM | TGI [41]: > 100 µM | TGI [42]: > 100 µM | TGI [43]: > 100 µM | TGI [44]: > 100 µM | TGI [45]: > 100 µM | TGI [47]: > 100 µM | TGI [48]: > 100 µM | TGI [49]: > 100 µM | TGI [50]: > 100 µM | TGI [52]: > 100 µM | TGI [53]: > 100 µM | TGI [55]: > 100 µM | TGI [56]: > 100 µM | TGI [57]: > 100 µM | TGI [59]: > 100 µM | TGI [60]: > 100 µM | TGI [61]: > 100 µM | TGI [62]: > 100 µM | TGI [63]: > 100 µM | TGI [65]: > 100 µM | TGI [66]: > 100 µM

CC(C)(C)c1cc(C(=O)O)c(C(c2ccccc2)c2ccccc2C(=O)O)c(C(=O)O)c1 (configuration not stated)
TGI [1]: > 100 µM | TGI [2]: > 100 µM | TGI [67]: > 100 µM | TGI [4]: > 100 µM | TGI [5]: > 100 µM | TGI [7]: > 100 µM | TGI [8]: > 100 µM | TGI [9]: > 100 µM | TGI [10]: 76.7 µM | TGI [11]: > 100 µM | TGI [12]: > 100 µM | TGI [13]: > 100 µM | TGI [14]: > 100 µM | TGI [16]: 37.7 µM | TGI [17]: 25.4 µM | TGI [18]: > 100 µM | TGI [19]: > 100 µM | TGI [20]: 49.1 µM | TGI [22]: > 100 µM | TGI [24]: > 100 µM | TGI [26]: > 100 µM | TGI [27]: > 100 µM | TGI [29]: > 100 µM | TGI [30]: > 100 µM | TGI [31]: > 100 µM | TGI [32]: > 100 µM | TGI [33]: > 100 µM | TGI [34]: > 100 µM | TGI [36]: > 100 µM | TGI [38]: > 100 µM | TGI [39]: > 100 µM | TGI [40]: > 100 µM | TGI [41]: > 100 µM | TGI [42]: > 100 µM | TGI [43]: 42.2 µM | TGI [44]: > 100 µM | TGI [45]: > 100 µM | TGI [47]: 40 µM | TGI [48]: > 100 µM | TGI [49]: > 100 µM | TGI [50]: > 100 µM | TGI [52]: > 100 µM | TGI [53]: > 100 µM | TGI [55]: > 100 µM | TGI [56]: > 100 µM | TGI [59]: > 100 µM | TGI [60]: > 100 µM | TGI [61]: 5.16 µM | TGI [62]: > 100 µM | TGI [63]: > 100 µM | TGI [65]: 36.9 µM
